Results: patent publication US11795189B2, “Formulation and method for spray-drying D-tagatose” (University of Kentucky Research Foundation, priority 2020, dated 2023)

Legend:
[1] = oral ingestion; cited from earlier work
[2] = granted 2004; such low toxicity that no daily intake monitoring is needed; cited from earlier work
[3] = Glass transition temperature (Tg) by DSC; format: physicochemical
Protocol: Glass transition temperatures were determined using DSC for physical mixtures of D-tagatose and respective excipients subjected to melt quenching. Samples were prepared by geometrically mixing D-tagatose and excipients at a 1:1 (w/w) ratio. Once mixed, the samples were then rigorously ground using a mortar and pestle before being hermetically sealed within a T-Zero pan. Once sealed, the samples were transferred to a Q2000 DSC (TA Instruments, New Castle, DE). All samples were run with the DSC operating in the modulation mode with a “pinhole” lid to better capture the sample's behavior instead of any residual vapors. The modulating method was first equilibrated at −20° C. before heating at 10° C./min to 140° C. […] Once −10° C. was reached, samples were set to modulate at ±0.5° C. every 60 s immediately and held for 5 min before ramping 1° C./min back to 140° C. Reported Tg values were averages of triplicate samples, each determined from the midpoint of the glass transition step change from the resultant reversible heat flow curves vs. temperature thermograms. All DSC mass samples were between 1 and 5 mg.

[4] = D-tagatose fully dissolved in water:organic dual solvent systems; format: physicochemical
From the text: The solvent used in the spray-drying feed formulation may be substantially any solvent suitable for the intended purpose including, for example, an appropriate co-solvent system. That co-solvent system may include acetone and water. The acetone and water may be provided at a ratio of between 1:1 and 4.6:1 (v/v %). In other embodiments, the co-solvent system may include methanol and water, propanol and water or ethanol and water.

[5] = crystalline D-tagatose, at 20° C.; cited from earlier work
[6] = D-tagatose dissolved in tri-solvent systems; format: physicochemical
From the text: Tri-solvent systems may also be used. One example of a tri-solvent system is ethanol, methanol and water.
Table 2: Summarizes tri-solvent systems that have shown to dissolve D-tagatose.

type 2 diabetes = details: cited from earlier work

## O=C(CO)[C@@H](O)[C@@H](O)[C@H](O)CO [D-tagatose, D-(−)-tagatose]
[1]
  fraction of orally ingested dose fully metabolized: 20%
[2]
  safe daily intake: not specified
[3]
  dry Tg (glass transition temperature): 18.92 °C
[4]; 2-Propanol:Water 5 mL:3.6 mL
  amount of D-tagatose dissolved: ~1 gram
[4]; 2-Propanol:water, 45.6 w % water, 43.3 w % organic
  w % Tagatose (fully dissolved): 11.1 w %
[4]; Acetone:Water 5 mL:4.1 mL
  amount of D-tagatose dissolved: ~1 gram
[4]; Acetone:water, 46.0 w % water, 42.7 w % organic
  w % Tagatose (fully dissolved): 11.3 w %
[4]; Ethanol:Water 5 mL:4.2 mL
  amount of D-tagatose dissolved: ~1 gram
[4]; Ethanol:water, 45.9 w % water, 42.5 w % organic
  w % Tagatose (fully dissolved): 11.6 w %
[4]; Methanol:Water 5 mL:3.1 mL
  amount of D-tagatose dissolved: ~1 gram
[4]; Methanol:water, 46.0 w % water, 42.7 w % organic
  w % Tagatose (fully dissolved): 11.2 w %
[5]
  aqueous solubility: 160 g/100 mL
[6]; 2-Propanol:Acetone:Water 1 mL:5 mL:3.8 mL, sonicate while adding water
  amount of D-tagatose dissolved: ~1 gram
[6]; 2-Propanol:Acetone:Water 5 mL:1 mL:3.6 mL, sonicate while adding water
  amount of D-tagatose dissolved: ~1 gram
[6]; 2-Propanol:Ethanol:Water 1 mL:5 mL:4.2 mL, sonicate while adding water
  amount of D-tagatose dissolved: ~1 gram
[6]; 2-Propanol:Ethanol:Water 5 mL:1 mL:4.6 mL, sonicate while adding water
  amount of D-tagatose dissolved: ~1 gram
[6]; Ethanol 1 mL + 5 mL methanol + water, 37.324 w % water, 51.789 w % organic
  w % Tagatose (dissolved): 10.887 w %
[6]; Ethanol 2 mL + 5 mL methanol + water, 36.185 w % water, 53.816 w % organic
  w % Tagatose (dissolved): 9.999 w %
[6]; Ethanol 3 mL + 5 mL methanol + water, 32.436 w % water, 58.272 w % organic
  w % Tagatose (dissolved): 9.292 w %
[6]; Methanol 1 mL + 5 mL ethanol + water, 39.808 w % water, 49.3620231 w % organic
  w % Tagatose (dissolved): 10.830 w %
[6]; Methanol 2 mL + 5 mL ethanol + water, 37.459 w % water, 52.8123019 w % organic
  w % Tagatose (dissolved): 9.729 w %
[6]; Methanol 3 mL + 5 mL ethanol + water, 35.506 w % water, 55.7893055 w % organic
  w % Tagatose (dissolved): 8.704 w %
[6]; Methanol:Ethanol:Water 5 mL:1 mL:3.4 mL
  amount of D-tagatose dissolved: ~1 gram
Type 2 diabetes
  effect on HbA1c: lower
  effect on LDL: lower
  effect on fasting blood glucose levels: lower
  effect on total cholesterol: lower
